One compound from patent publication US11433045B2, “Treatment of metabolic disorders in canine animals” (Boehringer Ingelheim Vetmedica GmbH, priority 2014, dated 2022) can be followed below.

The conditions of the data set: various environmental conditions and during production of a medicament.

`N#Cc1ccc([C@@H]2O[C@H](CO)[C@@H](O)[C@H](O)[C@H]2O)cc1Cc1ccc(C2CC2)cc1.O=C(O)[C@@H]1CCCN1`: the “physical and chemical stability” value was “high physical and chemical stability”.
